Activity calls are given as the source filed them.
Tests used:
[1] = tested on: SN12K1; assay: cells; assay type: functional; settings: Homo sapiens
[2] = tested on: P388/ADR; assay: cells; assay type: functional; settings: Mus musculus
[3] = tested on: P388; assay: cells; assay type: functional; settings: Mus musculus
[4] = biological target: Large T antigen (Simian virus 40, UniProt P03070); assay type: functional, Betapolyomavirus macacae;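 also: Confirmatory-stage PubChem screen for compounds that inhibit SV40 T antigen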
Chain of Large T antigen (P03070 whole entry): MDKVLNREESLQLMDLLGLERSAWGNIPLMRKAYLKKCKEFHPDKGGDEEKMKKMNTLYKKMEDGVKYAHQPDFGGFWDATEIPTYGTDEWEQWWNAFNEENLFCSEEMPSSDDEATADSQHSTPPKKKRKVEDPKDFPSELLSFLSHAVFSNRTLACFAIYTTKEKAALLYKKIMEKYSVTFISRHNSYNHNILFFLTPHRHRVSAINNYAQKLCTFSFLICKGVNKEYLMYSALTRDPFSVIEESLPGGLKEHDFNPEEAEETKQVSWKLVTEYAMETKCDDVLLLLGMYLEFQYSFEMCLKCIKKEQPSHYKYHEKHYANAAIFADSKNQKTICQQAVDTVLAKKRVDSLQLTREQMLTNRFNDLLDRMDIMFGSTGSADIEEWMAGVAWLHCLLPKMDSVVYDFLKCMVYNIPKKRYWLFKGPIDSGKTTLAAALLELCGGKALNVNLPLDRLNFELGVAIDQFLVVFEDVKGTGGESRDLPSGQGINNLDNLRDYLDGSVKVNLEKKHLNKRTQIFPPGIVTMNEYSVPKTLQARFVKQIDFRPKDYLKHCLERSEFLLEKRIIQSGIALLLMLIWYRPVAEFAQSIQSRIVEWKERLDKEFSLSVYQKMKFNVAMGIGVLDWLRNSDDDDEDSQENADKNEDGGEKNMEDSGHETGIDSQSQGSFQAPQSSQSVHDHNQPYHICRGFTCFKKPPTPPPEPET

[5] = biological target: Induced myeloid leukemia cell differentiation protein Mcl-1 (Homo sapiens, UniProt Q07820); assay type: functional
Chain of Induced myeloid leukemia cell differentiation protein Mcl-1 (Q07820 whole entry): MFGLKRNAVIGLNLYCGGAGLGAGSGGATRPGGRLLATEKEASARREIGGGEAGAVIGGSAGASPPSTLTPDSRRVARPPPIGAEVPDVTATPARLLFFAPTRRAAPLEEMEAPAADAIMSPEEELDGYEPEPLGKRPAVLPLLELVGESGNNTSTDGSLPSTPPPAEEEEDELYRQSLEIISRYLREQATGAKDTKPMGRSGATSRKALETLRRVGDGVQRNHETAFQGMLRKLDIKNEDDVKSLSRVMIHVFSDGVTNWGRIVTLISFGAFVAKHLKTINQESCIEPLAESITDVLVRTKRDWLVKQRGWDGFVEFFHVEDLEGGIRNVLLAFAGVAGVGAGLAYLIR

[6] = biological target: Genome polyprotein (dengue virus type 2, UniProt P29990); assay: flavivirus cap methylation enzyme inhibition – biochemical, confirmation dose response, primary screen (AID 588689); assay type: functional
Chain of Genome polyprotein (P29990 2492-3391 limits assumed): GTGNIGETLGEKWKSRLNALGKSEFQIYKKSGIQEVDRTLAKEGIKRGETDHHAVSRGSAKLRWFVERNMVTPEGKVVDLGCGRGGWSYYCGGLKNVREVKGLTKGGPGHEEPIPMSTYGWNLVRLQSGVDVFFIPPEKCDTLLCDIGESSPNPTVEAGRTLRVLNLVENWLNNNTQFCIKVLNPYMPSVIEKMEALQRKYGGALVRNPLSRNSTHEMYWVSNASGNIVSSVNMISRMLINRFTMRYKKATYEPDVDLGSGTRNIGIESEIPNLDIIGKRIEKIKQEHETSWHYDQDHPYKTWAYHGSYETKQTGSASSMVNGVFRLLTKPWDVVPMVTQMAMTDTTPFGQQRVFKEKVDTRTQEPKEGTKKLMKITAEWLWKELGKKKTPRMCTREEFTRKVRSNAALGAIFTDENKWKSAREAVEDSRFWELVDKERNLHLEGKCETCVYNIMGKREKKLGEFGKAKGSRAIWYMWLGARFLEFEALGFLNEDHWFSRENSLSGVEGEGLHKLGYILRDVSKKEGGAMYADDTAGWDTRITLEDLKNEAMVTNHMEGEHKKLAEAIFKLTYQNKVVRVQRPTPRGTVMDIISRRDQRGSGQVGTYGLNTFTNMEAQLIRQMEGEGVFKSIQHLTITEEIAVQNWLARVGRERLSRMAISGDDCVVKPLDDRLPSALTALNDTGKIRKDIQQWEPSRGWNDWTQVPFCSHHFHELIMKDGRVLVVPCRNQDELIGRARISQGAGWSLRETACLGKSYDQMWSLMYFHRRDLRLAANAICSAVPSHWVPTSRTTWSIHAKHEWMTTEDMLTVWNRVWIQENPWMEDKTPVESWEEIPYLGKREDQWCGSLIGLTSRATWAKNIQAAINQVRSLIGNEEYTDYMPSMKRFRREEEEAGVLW

[7] = biological target: T1, Leucine aminopeptidase (Plasmodium falciparum 3D7, UniProt Q8IL11); assay: P. falciparum M17LAP inhibitors, primary screen, biochemical, fluorogenic H-Leu-NHMec substrate, 1536-well (AID 1619); assay type: functional
T1 sequence (Q8IL11 whole entry): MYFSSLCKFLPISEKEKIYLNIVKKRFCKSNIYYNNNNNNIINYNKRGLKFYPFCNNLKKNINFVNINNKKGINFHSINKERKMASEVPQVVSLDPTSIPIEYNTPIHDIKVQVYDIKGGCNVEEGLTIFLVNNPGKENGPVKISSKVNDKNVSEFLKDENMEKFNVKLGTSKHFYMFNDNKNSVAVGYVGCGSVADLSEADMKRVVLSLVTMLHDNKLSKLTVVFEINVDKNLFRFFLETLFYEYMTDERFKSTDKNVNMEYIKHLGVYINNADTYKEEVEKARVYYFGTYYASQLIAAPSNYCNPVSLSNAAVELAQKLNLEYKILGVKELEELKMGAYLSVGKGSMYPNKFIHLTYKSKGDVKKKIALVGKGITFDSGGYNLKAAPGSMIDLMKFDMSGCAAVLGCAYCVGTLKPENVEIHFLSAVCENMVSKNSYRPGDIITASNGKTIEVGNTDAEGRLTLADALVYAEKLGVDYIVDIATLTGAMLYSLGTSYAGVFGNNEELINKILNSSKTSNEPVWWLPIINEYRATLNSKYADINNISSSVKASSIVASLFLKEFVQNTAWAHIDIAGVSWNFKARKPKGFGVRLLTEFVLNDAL

[8] = biological target: T2, Rac GTPase-activating protein 1 (Homo sapiens, UniProt Q9H0H5); assay: blockers of MgcRacGAP-driven Rac1 GTP hydrolysis – biochemical, ADP Hunter fluorescence, primary and confirmatory, confirmation (AID 624330); assay type: functional
T2 sequence (Q9H0H5 whole entry): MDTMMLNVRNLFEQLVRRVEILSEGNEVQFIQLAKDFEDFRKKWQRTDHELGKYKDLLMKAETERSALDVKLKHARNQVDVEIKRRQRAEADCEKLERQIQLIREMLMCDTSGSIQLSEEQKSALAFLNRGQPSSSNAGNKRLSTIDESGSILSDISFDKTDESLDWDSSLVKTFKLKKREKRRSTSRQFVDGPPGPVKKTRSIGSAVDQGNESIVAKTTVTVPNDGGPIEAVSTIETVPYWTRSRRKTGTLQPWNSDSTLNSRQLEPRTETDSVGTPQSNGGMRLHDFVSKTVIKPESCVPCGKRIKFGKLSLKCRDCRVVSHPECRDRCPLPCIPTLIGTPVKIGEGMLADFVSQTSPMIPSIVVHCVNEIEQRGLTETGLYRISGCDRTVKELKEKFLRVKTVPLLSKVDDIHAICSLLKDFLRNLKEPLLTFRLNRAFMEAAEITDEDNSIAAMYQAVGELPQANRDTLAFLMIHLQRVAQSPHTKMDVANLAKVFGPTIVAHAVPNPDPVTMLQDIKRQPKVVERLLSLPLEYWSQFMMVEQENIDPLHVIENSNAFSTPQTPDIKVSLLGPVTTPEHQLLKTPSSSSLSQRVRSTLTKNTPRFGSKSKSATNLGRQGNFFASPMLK

[9] = biological target: Cytochrome P450 2C9 (Homo sapiens, UniProt P11712)
Chain of Cytochrome P450 2C9 (P11712 whole entry): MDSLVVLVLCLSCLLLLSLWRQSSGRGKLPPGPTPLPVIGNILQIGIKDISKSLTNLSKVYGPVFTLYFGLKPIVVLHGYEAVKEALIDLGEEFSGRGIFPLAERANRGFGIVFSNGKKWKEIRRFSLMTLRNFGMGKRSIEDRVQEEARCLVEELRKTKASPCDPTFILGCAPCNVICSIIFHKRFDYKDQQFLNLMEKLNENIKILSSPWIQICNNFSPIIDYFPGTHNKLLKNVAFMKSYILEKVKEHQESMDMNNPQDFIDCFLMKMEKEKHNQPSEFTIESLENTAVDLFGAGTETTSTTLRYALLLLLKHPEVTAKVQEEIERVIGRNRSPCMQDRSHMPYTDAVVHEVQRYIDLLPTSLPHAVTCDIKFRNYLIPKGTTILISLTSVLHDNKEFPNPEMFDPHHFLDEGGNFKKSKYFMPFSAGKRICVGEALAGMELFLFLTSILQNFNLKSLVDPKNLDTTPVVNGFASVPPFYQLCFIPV

[10] = biological target: T3, Cytochrome P450 1A2 (Homo sapiens, UniProt P05177);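 also: PubChem cytochrome P450 panel assay, CYP1A2 panel member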
T3 sequence (P05177 whole entry): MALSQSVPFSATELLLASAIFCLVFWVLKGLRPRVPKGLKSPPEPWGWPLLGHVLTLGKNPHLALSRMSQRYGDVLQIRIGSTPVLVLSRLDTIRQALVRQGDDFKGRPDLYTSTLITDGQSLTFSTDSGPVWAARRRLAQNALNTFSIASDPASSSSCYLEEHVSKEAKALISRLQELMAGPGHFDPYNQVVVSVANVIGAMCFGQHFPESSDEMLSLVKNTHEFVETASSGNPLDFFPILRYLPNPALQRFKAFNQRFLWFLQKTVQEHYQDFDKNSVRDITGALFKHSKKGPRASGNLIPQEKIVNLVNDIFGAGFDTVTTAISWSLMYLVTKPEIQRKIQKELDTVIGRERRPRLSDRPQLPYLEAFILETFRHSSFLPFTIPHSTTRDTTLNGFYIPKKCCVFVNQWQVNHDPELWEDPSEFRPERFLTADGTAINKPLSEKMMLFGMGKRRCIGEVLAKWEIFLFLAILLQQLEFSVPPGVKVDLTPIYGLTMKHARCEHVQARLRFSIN

[11] = biological target: Cytochrome P450 2D6 (Homo sapiens, UniProt P10635);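 also: CYP2D6 member of a cytochrome P450 panel assay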
Chain of Cytochrome P450 2D6 (P10635 whole entry): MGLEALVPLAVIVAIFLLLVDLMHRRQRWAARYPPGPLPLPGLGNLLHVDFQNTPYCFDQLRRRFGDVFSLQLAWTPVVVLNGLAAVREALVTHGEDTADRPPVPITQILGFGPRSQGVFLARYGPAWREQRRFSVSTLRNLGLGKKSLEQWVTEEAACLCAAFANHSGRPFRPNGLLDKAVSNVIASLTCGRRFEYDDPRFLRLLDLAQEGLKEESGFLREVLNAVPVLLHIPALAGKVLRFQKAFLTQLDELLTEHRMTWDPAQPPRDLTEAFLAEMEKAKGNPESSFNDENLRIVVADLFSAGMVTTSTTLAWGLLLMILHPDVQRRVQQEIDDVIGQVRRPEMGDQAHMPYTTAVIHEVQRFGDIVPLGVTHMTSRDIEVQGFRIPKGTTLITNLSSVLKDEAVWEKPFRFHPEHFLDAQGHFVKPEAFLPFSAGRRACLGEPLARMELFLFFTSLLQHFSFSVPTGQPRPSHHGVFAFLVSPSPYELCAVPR

[12] = biological target: Cytochrome P450 3A4 (Homo sapiens, UniProt P08684);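 also: CYP3A4 tested as one member of a cytochrome P450 panel screen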
Chain of Cytochrome P450 3A4 (P08684 whole entry, the tested form may be a part): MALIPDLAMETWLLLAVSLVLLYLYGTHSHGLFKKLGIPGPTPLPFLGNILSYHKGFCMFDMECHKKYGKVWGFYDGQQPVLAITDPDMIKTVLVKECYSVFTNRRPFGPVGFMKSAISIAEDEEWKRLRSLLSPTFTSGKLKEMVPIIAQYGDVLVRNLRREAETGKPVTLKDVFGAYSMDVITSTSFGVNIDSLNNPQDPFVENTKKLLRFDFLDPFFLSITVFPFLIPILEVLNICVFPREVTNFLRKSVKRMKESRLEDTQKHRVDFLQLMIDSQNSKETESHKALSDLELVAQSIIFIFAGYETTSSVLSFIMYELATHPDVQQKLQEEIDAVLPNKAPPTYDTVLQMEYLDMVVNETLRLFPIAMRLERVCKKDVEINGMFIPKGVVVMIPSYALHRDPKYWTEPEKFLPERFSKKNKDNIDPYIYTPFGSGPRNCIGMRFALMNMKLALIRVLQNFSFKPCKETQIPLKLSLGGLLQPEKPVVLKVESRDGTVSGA

[13] = biological target: T4, Carboxy-terminal domain RNA polymerase II polypeptide A small phosphatase 1 (Homo sapiens, UniProt Q9GZU7); assay: CTDSP1 inhibitors, concentration-response, biochemical, absorbance readout, ultra-high-throughput screen actives (AID 540297); assay type: functional
T4 sequence (Q9GZU7 whole entry): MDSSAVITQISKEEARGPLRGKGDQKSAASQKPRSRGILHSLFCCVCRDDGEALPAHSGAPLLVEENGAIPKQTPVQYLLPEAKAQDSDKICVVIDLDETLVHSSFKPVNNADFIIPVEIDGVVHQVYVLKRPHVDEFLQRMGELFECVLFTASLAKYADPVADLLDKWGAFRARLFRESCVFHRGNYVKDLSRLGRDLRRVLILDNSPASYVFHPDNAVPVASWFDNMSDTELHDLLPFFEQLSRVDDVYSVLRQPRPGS

[14] = biological target: Cytochrome P450 2C19 (Homo sapiens, UniProt P33261); assay: Cytochrome panel assay with activity outcomes. Panel member name: p450-cyp2c19 Compounds with AC50 equal or less than 10 uM are considered active; assay type: functional; settings: read-out: AC50
Chain of Cytochrome P450 2C19 (P33261 whole entry): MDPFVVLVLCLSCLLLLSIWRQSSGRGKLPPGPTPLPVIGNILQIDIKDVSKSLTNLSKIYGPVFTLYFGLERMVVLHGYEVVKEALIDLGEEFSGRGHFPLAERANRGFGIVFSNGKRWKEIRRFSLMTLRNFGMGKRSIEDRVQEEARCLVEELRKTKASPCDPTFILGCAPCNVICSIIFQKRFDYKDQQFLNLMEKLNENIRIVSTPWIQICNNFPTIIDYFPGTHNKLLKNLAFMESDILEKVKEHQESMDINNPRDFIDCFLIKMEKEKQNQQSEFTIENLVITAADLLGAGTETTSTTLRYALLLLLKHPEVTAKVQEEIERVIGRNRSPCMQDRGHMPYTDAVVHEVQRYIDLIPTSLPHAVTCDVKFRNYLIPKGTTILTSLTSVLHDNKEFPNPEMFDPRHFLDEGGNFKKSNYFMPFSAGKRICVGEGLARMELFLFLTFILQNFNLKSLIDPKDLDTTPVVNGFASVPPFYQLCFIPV

[15] = biological target: T5, Replicative DNA helicase DnaB (Mycobacterium tuberculosis, UniProt P9WMR3); assay: DnaB intein splicing inhibitors, dose response, biochemical, cell-free fluorescence (AID 449749); assay type: functional
T5 sequence (P9WMR3 whole entry): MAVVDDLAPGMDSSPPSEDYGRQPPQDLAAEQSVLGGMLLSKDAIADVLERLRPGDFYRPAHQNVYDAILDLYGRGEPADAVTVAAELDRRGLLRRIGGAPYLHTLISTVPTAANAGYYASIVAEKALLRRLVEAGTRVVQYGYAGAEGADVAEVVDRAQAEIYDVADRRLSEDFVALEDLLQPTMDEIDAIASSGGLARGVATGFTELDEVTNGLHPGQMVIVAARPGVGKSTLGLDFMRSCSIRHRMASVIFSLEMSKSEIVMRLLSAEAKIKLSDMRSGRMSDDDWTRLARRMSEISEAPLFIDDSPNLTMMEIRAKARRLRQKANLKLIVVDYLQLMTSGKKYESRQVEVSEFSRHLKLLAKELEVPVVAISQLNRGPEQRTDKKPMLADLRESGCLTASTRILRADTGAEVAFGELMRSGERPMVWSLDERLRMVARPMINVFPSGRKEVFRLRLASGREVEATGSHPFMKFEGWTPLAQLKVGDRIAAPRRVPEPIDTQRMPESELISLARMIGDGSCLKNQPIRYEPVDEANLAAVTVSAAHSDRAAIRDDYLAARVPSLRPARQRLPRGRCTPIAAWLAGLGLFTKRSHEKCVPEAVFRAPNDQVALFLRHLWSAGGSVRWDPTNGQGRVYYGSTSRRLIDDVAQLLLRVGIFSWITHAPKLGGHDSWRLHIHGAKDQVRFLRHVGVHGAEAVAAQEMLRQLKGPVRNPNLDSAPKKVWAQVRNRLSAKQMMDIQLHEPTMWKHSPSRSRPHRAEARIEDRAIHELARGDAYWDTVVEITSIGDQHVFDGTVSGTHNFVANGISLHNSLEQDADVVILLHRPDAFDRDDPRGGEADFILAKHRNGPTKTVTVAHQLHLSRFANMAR

[16] = biological target: T6, Protein RecA (Mycobacterium tuberculosis, UniProt P9WHJ3); assay: Fluorescence Cell-Free Homogeneous Dose Retest to Identify Inhibitors of RecA-Intein Splicing Activity. [Related pubchem assays (depositor defined):AID2097, AID2223, AID489010, AID492950]; assay type: functional
T6 sequence (P9WHJ3 whole entry): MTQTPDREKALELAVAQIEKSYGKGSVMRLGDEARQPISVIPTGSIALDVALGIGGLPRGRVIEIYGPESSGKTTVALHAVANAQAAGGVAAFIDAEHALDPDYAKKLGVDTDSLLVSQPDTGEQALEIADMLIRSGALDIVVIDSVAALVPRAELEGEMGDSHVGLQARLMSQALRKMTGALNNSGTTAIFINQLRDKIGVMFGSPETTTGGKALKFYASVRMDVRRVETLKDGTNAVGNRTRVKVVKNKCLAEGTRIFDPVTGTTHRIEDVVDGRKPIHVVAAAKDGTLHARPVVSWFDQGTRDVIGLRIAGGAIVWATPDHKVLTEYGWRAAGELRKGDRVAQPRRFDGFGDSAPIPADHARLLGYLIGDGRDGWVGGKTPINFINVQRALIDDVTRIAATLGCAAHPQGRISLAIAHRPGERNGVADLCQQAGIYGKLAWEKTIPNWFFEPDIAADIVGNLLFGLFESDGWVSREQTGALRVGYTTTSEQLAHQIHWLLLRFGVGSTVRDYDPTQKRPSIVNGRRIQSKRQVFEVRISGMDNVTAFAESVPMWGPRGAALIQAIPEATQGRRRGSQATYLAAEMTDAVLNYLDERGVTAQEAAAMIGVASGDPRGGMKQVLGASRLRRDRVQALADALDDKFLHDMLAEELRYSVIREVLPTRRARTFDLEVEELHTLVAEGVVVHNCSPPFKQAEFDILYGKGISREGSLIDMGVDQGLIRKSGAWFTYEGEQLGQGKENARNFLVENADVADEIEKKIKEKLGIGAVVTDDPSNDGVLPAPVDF

| Structure (SMILES) | GI50 [1] | GI50 [2] | GI50 [3] | other results |
| --- | --- | --- | --- | --- |
| COCCO [2-METHOXYETHANOL] | > 100 µM (inactive) | > 100 µM (inactive) | > 100 µM (inactive) |  |
| O=C(COc1cccnc1[N+](=O)[O-])c1ccc(Cl)s1 |  |  |  | IC50 [4]: 67.7 µM (active); IC50 [5]: 3.78 µM (active); IC50 [6]: > 100 µM (active) |
| O=C1C2C3C=CC(CC3)C2C(=O)N1/N=C/c1ccc(O)c(O)c1 (stereo unspecified) |  |  |  | IC50 [4]: 4.4 µM (active); IC50 [7]: 34.3 µM (active); IC50 [8]: 74 µM (active) |
| CCc1ccccc1N1CCN(C(=O)c2cc(OC)c(OC)c(OC)c2)CC1 | 0.0614 µM (active) | 0.119 µM (active) | 0.0395 µM (active) |  |
| CCCCCCCCCCCCCCCCCC(=O)NC[C@@H](COP(=O)([O-])OCC[N+](C)(C)C)OCC |  |  |  | AC50 [9]: inconclusive; AC50 [10]: 39.8 µM (inconclusive); AC50 [11]: 39.8 µM (inconclusive) |
| NC(Cc1c[nH]c2ccccc12)C(=O)O (stereo not drawn) [DL-TRYPTOPHAN] | > 300 µM (inactive) | > 300 µM (inactive) | 269 µM (inactive) |  |
| CC(=O)[C@H]1CCC2[C@@H]3CC=C4C(O)C(OS(=O)(=O)O)CC[C@]4(C)C3CC[C@@]21C (stereo partly specified) | > 100 µM (inactive) | > 100 µM (inactive) | > 100 µM (inactive) |  |
| Cc1ccccc1C(=O)NN(C)c1nc2ccccc2nc1C(F)(F)F |  |  |  | AC50 [12]: 7.08 µM (inconclusive); AC50 [9]: inconclusive |
| COc1ccc(/C=N/NC(=O)c2ccc(O)cc2O)cc1CSc1ccccn1 |  |  |  | IC50 [5]: 3.42 µM (active); IC50 [13]: 5.92 µM (active) |
| CC1[C@@H]2CC=C3C4CCC5Cc6nc7c(nc6C[C@@]5(C)C4CC(=O)[C@]32CO[C@@]1(O)C(O)CC(C)(C)O)CC1CCC2C3=C[C@H]4O[C@@]5(O[C@@](C)(CO)C[C@@H]5O)C(C)[C@@]4(O)[C@]3(C)[C@@H](O)CC2[C@]1(C)C7 (stereo partly specified) | < 0.00036 µM (active) | 0.0105 µM (active) | < 0.00036 µM (active) |  |
| CCn1c(SC)nnc1C1CCN(S(=O)(=O)c2ccc(OC)cc2)CC1 |  |  |  | AC50 [9]: inconclusive; AC50 [11]: 8.91 µM (inconclusive) |
| CC[C@](O)(C(=O)O)c1cc2n(c(=O)c1CO)Cc1cc3ccccc3nc1-2 | 0.209 µM (active) | 0.03 µM (active) | 0.025 µM (active) |  |
| Nc1n[nH]c(N)n1 [GUANAZOLE] | 2830 µM (inactive) | 1060 µM (inactive) | 728 µM (inactive) |  |
| CS(=O)(=O)Nc1cccc(-c2cc(Nc3ccccc3)ncn2)c1 |  |  |  | AC50 [9]: inconclusive; AC50 [11]: 25.1 µM (inconclusive); AC50 [14]: 31.6 µM (inconclusive) |
| Cc1ccc(-c2n[nH]c3c2C(C)C(C#N)=C(N)O3)cc1 (stereo unspecified) |  |  |  | IC50 [7]: 16.3 µM (active); AC50 [15]: > 380 µM (inconclusive); EC50 [16]: 0.518 µM (active) |
| NC1CCCCC1 | 243 µM (inactive) |  | 92.9 µM (inactive) |  |
| COc1ccc(CNc2nc(-c3ccccc3CN(C)C)nc3ccccc23)c(OC)c1 |  |  |  | AC50 [9]: inconclusive; AC50 [14]: 15.8 µM (inconclusive) |
